kinact/KI data for 49 compounds are collected here from patent EP0595557A1, “New substituted azetidinones as anti-inflammatory and antidegenerative agents” (MERCK & CO. INC., priority 1992, dated 1994).

Each structure is given as a SMILES string.

This experiment has as its target T1, Human Polymorphonuclear Leukocyte Elastase (Homo sapiens, UniProt P08246).
T1 construct: Crude extract of human polymorphonuclear leukocytes (PMN) containing elastase activity; from tissue; host or cells: human polymorphonuclear leukocytes (crude extract)
T1 sequence (P08246 30-267): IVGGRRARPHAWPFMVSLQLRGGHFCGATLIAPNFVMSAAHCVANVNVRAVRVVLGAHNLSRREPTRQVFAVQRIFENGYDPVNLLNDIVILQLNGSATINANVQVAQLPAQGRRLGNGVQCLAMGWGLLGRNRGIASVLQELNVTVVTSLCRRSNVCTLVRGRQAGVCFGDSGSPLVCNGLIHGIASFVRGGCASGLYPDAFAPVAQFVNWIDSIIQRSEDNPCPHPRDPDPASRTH
Description: Enzyme assay for inhibition of human polymorphonuclear leukocyte elastase via hydrolysis of Boc-AAPAN or Boc-AAPVN. Type of experiment: biochemical. Conditions: pH 7.5, second order rate constant for inactivation of the enzyme, expressed to the nearest thousand, read-out: Kobs/[I]. In outline: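 Crude human PMN extract as enzyme source, with 0.2 mM Boc-AAPAN in 0.05M TES buffer pH 7.5. Inhibitors in DMSO were added to substrate before the extract, and rate was followed as ΔOD/min at 410 mµ. Values are kobs/I, the second-order inactivation rate constant (per mole per second).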
Take `CCC[C@@H](NC(=O)N1C(=O)C(CC)(CC)[C@@H]1Oc1ccc(C(=O)N(C)CC(c2ccccc2)N(C)C)cc1)c1ccc(C)cc1` (stereo partly shown) [Compound 186]: the kinact/KI was 1.05e+06 M⁻¹ s⁻¹.

Take `CCC[C@@H](NC(=O)N1C(=O)C(CC)(CC)[C@@H]1Oc1ccc(C(=O)N(C)C)cc1)c1ccc(C)cc1` [Compound 187]: the kinact/KI is 1.75e+06 M⁻¹ s⁻¹.

For the compound `CCC[C@@H](NC(=O)N1C(=O)C(CC)(CC)[C@@H]1Oc1ccc(C(=O)N(C)Cc2ccccc2)cc1)c1ccc(C)cc1` [Compound 188], the kinact/KI was 1.84e+06 M⁻¹ s⁻¹.

For `CCC[C@@H](NC(=O)N1C(=O)C(CC)(CC)[C@@H]1Oc1ccc(C(=O)N(C)C2CCCN(Cc3ccccc3)C2)cc1)c1ccc(C)cc1` (stereo partly shown) [Compound 189], the kinact/KI worked out at 1.88e+06 M⁻¹ s⁻¹.

As to `CCC[C@@H](NC(=O)N1C(=O)C(CC)(CC)[C@@H]1Oc1ccc(C(=O)NOCc2ccccc2)cc1)c1ccc(C)cc1` [Compound 190], the kinact/KI is 1.8e+06 M⁻¹ s⁻¹.

In the case of `CCC[C@@H](NC(=O)N1C(=O)C(CC)(CC)[C@@H]1Oc1ccc(C(=O)N(CCN(C)Cc2ccccc2)Cc2cccnc2)cc1)c1ccc(C)cc1` [Compound 191], the kinact/KI was found to be 2.54e+06 M⁻¹ s⁻¹.

Turning to `CCC[C@@H](NC(=O)N1C(=O)C(CC)(CC)[C@@H]1Oc1ccc(C(=O)N(C)CCN(C)Cc2ccc(OC)cc2)cc1)c1ccc(C)cc1` [Compound 192], the kinact/KI came to 1.78e+06 M⁻¹ s⁻¹.

For the compound `CCC[C@@H](NC(=O)N1C(=O)C(CC)(CC)[C@@H]1Oc1ccc(C(=O)N(CCN(C)Cc2ccccc2)Cc2ccncc2)cc1)c1ccc(C)cc1` [Compound 193], the kinact/KI came out at 2.24e+06 M⁻¹ s⁻¹.

`CCC[C@@H](NC(=O)N1C(=O)C(CC)(CC)[C@@H]1Oc1ccc(C(=O)N(CCN(C)Cc2ccccc2)Cc2ccccn2)cc1)c1ccc(C)cc1` [Compound 194]: the kinact/KI stood at 2.47e+06 M⁻¹ s⁻¹.

`CCC[C@@H](NC(=O)N1C(=O)C(CC)(CC)[C@@H]1Oc1ccc(C(=O)N(C)CCN(C)Cc2ccc(C)cc2C)cc1)c1ccc(C)cc1` [Compound 195]: the kinact/KI came to 1.12e+06 M⁻¹ s⁻¹.

`CCC[C@@H](NC(=O)N1C(=O)C(CC)(CC)[C@@H]1Oc1ccc(C(=O)N(C)CCN2CC(C)OC(C)C2)cc1)c1ccc(C)cc1` (stereo partly shown) [Compound 196]: the kinact/KI was found to be 1.53e+06 M⁻¹ s⁻¹.

On to `CCC[C@@H](NC(=O)N1C(=O)C(CC)(CC)[C@@H]1Oc1ccc(C(N)=O)cc1)c1ccc(C)cc1` [Compound 197], for which the kinact/KI amounted to 1.64e+06 M⁻¹ s⁻¹.

With `CCC[C@@H](NC(=O)N1C(=O)C(CC)(CC)[C@@H]1Oc1ccc(C(=O)NC)cc1)c1ccc(C)cc1` [Compound 198], the kinact/KI worked out at 1.82e+06 M⁻¹ s⁻¹.

On to `CCC[C@@H](NC(=O)N1C(=O)C(CC)(CC)[C@@H]1Oc1ccc(C(=O)N2CCOCC2)cc1)c1ccc(C)cc1` [Compound 199], for which the kinact/KI turned out to be 2.38e+06 M⁻¹ s⁻¹.

Consider `CCC[C@@H](NC(=O)N1C(=O)C(CC)(CC)[C@@H]1Oc1ccc(C(=O)N2C[C@@H](C)O[C@@H](C)C2)cc1)c1ccc(C)cc1` [Compound 200], for which the kinact/KI worked out at 1.84e+06 M⁻¹ s⁻¹.

As to `CCCCNC(=O)c1ccc(OC2N(C(=O)NC(CCC)c3ccc(C)cc3)C(=O)C2(CC)CC)cc1` (stereo not shown) [Compound 201], the kinact/KI is 2.46e+06 M⁻¹ s⁻¹.

As for `CCC[C@@H](NC(=O)N1C(=O)C(CC)(CC)[C@@H]1Oc1ccc(C(=O)N(C)CCN(C)C(=NC#N)Nc2ccccc2)cc1)c1ccc(C)cc1` [Compound 202], the kinact/KI turned out to be 1.76e+06 M⁻¹ s⁻¹.

For `CCC[C@@H](NC(=O)N1C(=O)C(CC)(CC)[C@@H]1Oc1ccc(C(=O)N(C)CCN(C)Cc2cccc(F)c2)cc1)c1ccc(C)cc1` [Compound 203], the kinact/KI was 1.26e+06 M⁻¹ s⁻¹.

In the case of `CCC[C@@H](NC(=O)N1C(=O)C(CC)(CC)[C@@H]1Oc1ccc(C(=O)N(C)CCN(C)Cc2ccccc2Cl)cc1)c1ccc(C)cc1` [Compound 204], the kinact/KI is 1.59e+06 M⁻¹ s⁻¹.

As to `CCC[C@@H](NC(=O)N1C(=O)C(CC)(CC)[C@@H]1Oc1ccc(C(=O)N(C)CCN(C)Cc2cccc(OC)c2)cc1)c1ccc(C)cc1` [Compound 205], the kinact/KI was 1.91e+06 M⁻¹ s⁻¹.

As to `CCC[C@@H](NC(=O)N1C(=O)C(CC)(CC)[C@@H]1Oc1ccc(C(=O)N(C)CCN(C)Cc2cc(OC)cc(OC)c2)cc1)c1ccc(C)cc1` [Compound 206], the kinact/KI was 1.74e+06 M⁻¹ s⁻¹.

In the case of `CCC[C@@H](NC(=O)N1C(=O)C(CC)(CC)[C@@H]1Oc1ccc(C(=O)N2CCc3cc(OC)c(OC)cc3C2)cc1)c1ccc(C)cc1` [Compound 207], the kinact/KI turned out to be 2.7e+06 M⁻¹ s⁻¹.

In the case of `CCC[C@@H](NC(=O)N1C(=O)C(CC)(CC)[C@@H]1Oc1ccc(C(=O)N(C)C2CCN(Cc3ccccc3)CC2)cc1)c1ccc(C)cc1` [Compound 208], the kinact/KI was 1.95e+06 M⁻¹ s⁻¹.

As to `CCC[C@@H](NC(=O)N1C(=O)C(CC)(CC)[C@@H]1Oc1ccc(C(=O)NCCCC[C@H](N)C(=O)O)cc1)c1ccc(C)cc1` [Compound 209], the kinact/KI was 929000 M⁻¹ s⁻¹.

Regarding `CCC[C@@H](NC(=O)N1C(=O)C(CC)(CC)[C@@H]1Oc1ccc(C(=O)N(C)CCN(C)C2C3CC4CC(C3)CC2C4)cc1)c1ccc(C)cc1` (stereo partly shown) [Compound 210], the kinact/KI amounted to 2.13e+06 M⁻¹ s⁻¹.

In the case of `CCC[C@@H](NC(=O)N1C(=O)C(CC)(CC)[C@@H]1Oc1ccc(C(=O)N(C)C2CCNCC2)cc1)c1ccc(C)cc1` [Compound 211], the kinact/KI came out at 85000 M⁻¹ s⁻¹.

`CCC[C@@H](NC(=O)N1C(=O)C(CC)(CC)[C@@H]1Oc1ccc(C(=O)N2CC3CC2CN3C)cc1)c1ccc(C)cc1` (stereo partly shown) [Compound 212]: the kinact/KI was found to be 860000 M⁻¹ s⁻¹.

In the case of `CCC[C@@H](NC(=O)N1C(=O)C(CC)(CC)[C@@H]1Oc1ccc(C(=O)N(C)CC(=O)O)cc1)c1ccc(C)cc1` [Compound 213], the kinact/KI turned out to be 984000 M⁻¹ s⁻¹.

On to `CCC[C@@H](NC(=O)N1C(=O)C(CC)(CC)[C@@H]1Oc1ccc(C(=O)N(C)CCCN(C)CC)cc1)c1ccc(C)cc1` [Compound 214], for which the kinact/KI came to 1.1e+06 M⁻¹ s⁻¹.

Regarding `CCC[C@@H](NC(=O)N1C(=O)C(CC)(CC)[C@@H]1Oc1ccc(C(=O)N(C)C2CCN(C)CC2)cc1)c1ccc(C)cc1` [Compound 215], the kinact/KI is 1.28e+06 M⁻¹ s⁻¹.

Take `CCC[C@@H](NC(=O)N1C(=O)C(CC)(CC)[C@@H]1Oc1ccc(C(=O)N(C)C2CCN(CCC)CC2)cc1)c1ccc(C)cc1` [Compound 216]: the kinact/KI was determined as 1.31e+06 M⁻¹ s⁻¹.

Consider `CCC[C@@H](NC(=O)N1C(=O)C(CC)(CC)[C@@H]1Oc1ccc(C(=O)N(C)C2CCN(CC)CC2)cc1)c1ccc(C)cc1` [Compound 217], for which the kinact/KI was found to be 1.42e+06 M⁻¹ s⁻¹.

`CCC[C@@H](NC(=O)N1C(=O)C(CC)(CC)[C@@H]1Oc1ccc(C(=O)N(C)CC(C)N(C)Cc2ccccc2)cc1)c1ccc(C)cc1` (stereo partly shown) [Compound 218]: the kinact/KI turned out to be 2.12e+06 M⁻¹ s⁻¹.

In the case of `CCC[C@@H](NC(=O)N1C(=O)C(CC)(CC)[C@@H]1Oc1ccc(C(=O)N(C)CC(C)N(C)C)cc1)c1ccc(C)cc1` (stereo partly shown) [Compound 219], the kinact/KI was 1.59e+06 M⁻¹ s⁻¹.

For `CCC[C@@H](NC(=O)N1C(=O)C(CC)(CC)[C@@H]1Oc1ccc(C(=O)N(C)CCN(C)C2CC3CCC2C3)cc1)c1ccc(C)cc1` (stereo partly shown) [Compound 220], the kinact/KI was found to be 1.87e+06 M⁻¹ s⁻¹.

For the compound `CCC[C@@H](NC(=O)N1C(=O)C(CC)(CC)[C@@H]1Oc1ccc(C(=O)N(C)CCNC2C3CC4CC(C3)CC2C4)cc1)c1ccc(C)cc1` (stereo partly shown) [Compound 221], the kinact/KI turned out to be 3.01e+06 M⁻¹ s⁻¹.

As to `CCC[C@@H](NC(=O)N1C(=O)C(CC)(CC)[C@@H]1Oc1ccc(C(=O)N(C)CCN(C)C2CCC3CC2C3(C)C)cc1)c1ccc(C)cc1` (stereo partly shown) [Compound 222], the kinact/KI is 2.29e+06 M⁻¹ s⁻¹.

Take `CCC[C@@H](NC(=O)N1C(=O)C(CC)(CC)[C@@H]1Oc1ccc(C(=O)N(C)CCN(C)C2CCC3CCC2C3)cc1)c1ccc(C)cc1` (stereo partly shown) [Compound 223]: the kinact/KI stood at 2.58e+06 M⁻¹ s⁻¹.

For the compound `CCC[C@@H](NC(=O)N1C(=O)C(CC)(CC)[C@@H]1Oc1ccc(C(=O)N(C)CCN(C)C2=CCCCC2)cc1)c1ccc(C)cc1` [Compound 225], the kinact/KI worked out at 1.84e+06 M⁻¹ s⁻¹.

Turning to `C=CC(C)(C)NCCN(C)C(=O)c1ccc(O[C@@H]2N(C(=O)N[C@H](CCC)c3ccc(C)cc3)C(=O)C2(CC)CC)cc1` [Compound 226], the kinact/KI was determined as 1.31e+06 M⁻¹ s⁻¹.

Turning to `CCC[C@@H](NC(=O)N1C(=O)C(CC)(CC)[C@@H]1Oc1ccc(C(=O)N2CCC[C@H]2C(N)=O)cc1)c1ccc(C)cc1` [Compound 227], the kinact/KI turned out to be 931000 M⁻¹ s⁻¹.

On to `CCC[C@@H](NC(=O)N1C(=O)C(CC)(CC)[C@@H]1Oc1ccc(C(=O)N2CCCCC2CO)cc1)c1ccc(C)cc1` (stereo partly shown) [Compound 228], for which the kinact/KI is 50000 M⁻¹ s⁻¹.

`CCC[C@@H](NC(=O)N1C(=O)C(CC)(CC)[C@@H]1Oc1ccc(C(=O)N2CCC(N(C)C)C2)cc1)c1ccc(C)cc1` (stereo partly shown) [Compound 229]: the kinact/KI is 1.34e+06 M⁻¹ s⁻¹.

In the case of `C=CCN(CCN(C)C(=O)c1ccc(O[C@@H]2N(C(=O)N[C@H](CCC)c3ccc(C)cc3)C(=O)C2(CC)CC)cc1)C(C)(C)C=C` [Compound 231], the kinact/KI amounted to 925000 M⁻¹ s⁻¹.

As to `CCC[C@@H](NC(=O)N1C(=O)C(CC)(CC)[C@@H]1Oc1ccc(C(=O)N(C)CCN(C)C2CCC(CC)CC2)cc1)c1ccc(C)cc1` (stereo partly shown) [Compound 232], the kinact/KI worked out at 2.48e+06 M⁻¹ s⁻¹.

`CCC[C@@H](NC(=O)N1C(=O)C(CC)(CC)[C@@H]1Oc1ccc(C(=O)N2CCN(c3ccc(F)cc3)CC2)cc1)c1ccc(C)cc1` [Compound 243]: the kinact/KI was found to be 7.49e+06 M⁻¹ s⁻¹.

In the case of `CCC[C@@H](NC(=O)N1C(=O)C(CC)(CC)[C@@H]1Oc1ccc(C(=O)N2CCN(c3cccc(Cl)c3)CC2)cc1)c1ccc(C)cc1` [Compound 244], the kinact/KI stood at 2.45e+06 M⁻¹ s⁻¹.

As for `CCC[C@@H](NC(=O)N1C(=O)C(CC)(CC)[C@@H]1Oc1ccc(C(=O)N2CCN(c3ccccc3)CC2)cc1)c1ccc(C)cc1` [Compound 245], the kinact/KI was 5.28e+06 M⁻¹ s⁻¹.

In the case of `CCC[C@@H](NC(=O)N1C(=O)C(CC)(CC)[C@@H]1Oc1ccc(C(=O)N2CCN(Cc3ccccc3)CC2)cc1)c1ccc(C)cc1` [Compound 246], the kinact/KI worked out at 5.17e+06 M⁻¹ s⁻¹.
